# Test results reported in patent US20100069246A1, “Herbicide Combination Comprising Dimethoxytriazinyl-Substituted Difluoromethanesulfonylanilides” (BAYER CROPSCIENCE AG, priority 2008, published 2010).
# What was measured:
# Test in all cases: Post-emergence action, greenhouse pot test, visual scoring
# Format in all cases: in vivo
# [1] = system: Pharbitis purpurea (PHBPU)
# Protocol: (§1) Seeds or rhizome pieces of mono- and dicotyledonous harmful and useful plants were placed in peat pots (diameter 4 cm) filled with sandy loam and then covered with soil. The pots were kept in a greenhouse under optimum conditions. In addition, harmful plants encountered in paddy rice cultivation were cultivated in pots with a water level 2 cm above the soil surface.
# (§2) About three weeks after the start of the cultivation, the test plants were treated at the 2- to 3-leaf stage. The herbicides, formulated as powder or liquid concentrates, were, either alone or in the combinations according to the invention, sprayed in various dosages on to the green parts of the plants using an application rate of 600 l of water/ha (converted). For further cultivation of the plants, the pots were then again kept under optimum conditions in a greenhouse.
# (§3) The visual scoring of the herbicidal effects was carried out in intervals up to 21 days after the treatment. Scoring was carried out in percent in comparison to the untreated control plants. 0%=no herbicidal activity, 100%=complete herbicidal activity=complete kill.
# (§4) The percentages from the treatments with the herbicides alone (=individual application) and with the combinations according to the invention (=mixtures) were employed to calculate interactions using the method of Colby. When the observed efficacies of the mixtures exceed the formal sum of the values of the tests with individual applications, they also exceed the expected value according to Colby, which is calculated using the formula below (cf. S. R. Colby; in Weeds 15 (1967) pp. 20 to 22):
# (§5) Here: • A, B=activity of components A and B in percent at a dosage of a and b g of ai/ha (=gramm of active substance per hectare), respectively. • E=expected value in % at a dosage of a+b g of ai/ha.
# [2] = system: Setaria viridis (SETVI)
# Protocol: as §1, §2, §3, §4, §5
# [3] = system: Amaranthus retroflexus (AMARE)
# Protocol: as §1, §2, §3, §4, §5
# [4] = system: Fallopia (ex Polygonum) convolvulus (POLCO)
# Protocol: as §1, §2, §3, §4, §5
# [5] = system: Oryza sativa (ORYSA)
# Protocol: as §1, §2, §3, §4, §5
# [6] = system: Zea mays (ZEAMX)
# Protocol: as §1, §2, §3, §4, §5
# [7] = system: Matricaria inodora (MATIN)
# Protocol: as §1, §2, §3, §4, §5
# [8] = system: Alopecurus myosuroides (ALOMY)
# Protocol: as §1, §2, §3, §4, §5
# [9] = system: Echinochloa crus-galli (ECHCG); conditions: 21 DAT
# Protocol: as §1, §2, §3, §4, §5
# [10] = system: Triticum aestivum (TRZAS); conditions: 10 DAT
# Protocol: as §1, §2, §3, §4, §5
# [11] = system: Abuthilon theophrasti (ABUTH)
# Protocol: as §1, §2, §3, §4, §5
# [12] = system: Lolium multiflorum (LOLMU)
# Protocol: as §1, §2, §3, §4, §5
# [13] = system: Veronica persica (VERPE)
# Protocol: as §1, §2, §3, §4, §5
# [14] = system: Viola tricolor (VIOTR)
# Protocol: as §1, §2, §3, §4, §5
# [15] = system: Avena fatua (AVEFA)
# Protocol: as §1, §2, §3, §4, §5
# [16] = system: Cyperus esculentus (CYPES); conditions: 21 DAT
# Protocol: as §1, §2, §3, §4, §5
# [17] = 21 DAT, component A 4 g of ai/ha
# [18] = 10 DAT, component A 4 g of ai/ha
# [19] = 21 DAT, component A 12 g of ai/ha
# [20] = 10 DAT, component B 300 g of ai/ha
# [21] = 10 DAT, component B 900 g of ai/ha
# [22] = 21 DAT, component B 300 g of ai/ha
# [23] = 21 DAT, component B 900 g of ai/ha
# [24] = 10 DAT, component B 400 g of ai/ha
# [25] = 10 DAT, component B 1200 g of ai/ha
# [26] = 21 DAT, component B 400 g of ai/ha
# [27] = 21 DAT, component B 1200 g of ai/ha
smiles,measurement,setting,value
COc1nc(OC)nc(C(=O)c2cccc(F)c2N(C)S(=O)(=O)C(F)F)n1 [A-1],% activity found,"[1]; 10 DAT, component A 12 g of ai/ha",60%
same,% activity found,[1]; [17],60%
same,% activity found,[2]; [18],50%
same,% activity found,[3]; [17],70%
same,% activity found,[4]; [19],70%
same,% activity found,[5]; [19],10%
same,% activity found,[6]; [18],0%
same,% activity found,[6]; [19],0%
same,% activity found,[7]; [19],60%
same,% activity found,[8]; [18],40%
same,% activity found,[8]; [17],40%
same,% activity found,[9]; component A 4 g of ai/ha,85%
same,% activity found,[10]; component A 4 g of ai/ha,0%
same,% activity found,[11]; [17],85%
same,% activity found,[11]; [19],85%
"CC(C)(NC(=O)NCc1ccccc1Cl)c1ccccc1 [B1-1, N-[(2-chlorophenyl)methyl]-N′-(1-methyl-1-phenylethyl)urea]",% activity found,[1]; [20],0%
same,% activity found,[1]; [21],0%
same,% activity found,[1]; [22],0%
same,% activity found,[1]; [23],30%
same,% activity found,[2]; [20],0%
same,% activity found,[2]; [21],0%
same,% activity found,[2]; [22],0%
same,% activity found,[2]; [23],0%
same,% activity found,[3]; [22],0%
same,% activity found,[3]; [23],20%
same,% activity found,[4]; [22],0%
same,% activity found,[4]; [23],0%
same,% activity found,[12]; [23],0%
same,% activity found,[5]; [20],0%
same,% activity found,[6]; [20],0%
same,% activity found,[6]; [21],0%
same,% activity found,[6]; [22],5%
same,% activity found,[6]; [23],0%
same,% activity found,[13]; [20],0%
same,% activity found,[13]; [21],0%
same,% activity found,[13]; [22],0%
same,% activity found,[13]; [23],0%
same,% activity found,[7]; [20],20%
same,% activity found,[7]; [22],0%
same,% activity found,[7]; [23],0%
same,% activity found,[14]; [23],10%
same,% activity found,[8]; [20],0%
same,% activity found,[8]; [21],0%
same,% activity found,[8]; [22],0%
same,% activity found,[8]; [23],0%
same,% activity found,[15]; [20],0%
same,% activity found,[15]; [21],0%
same,% activity found,[9]; component B 300 g of ai/ha,0%
same,% activity found,[10]; component B 900 g of ai/ha,5%
same,% activity found,[11]; [20],0%
same,% activity found,[11]; [22],0%
same,% activity found,[11]; [23],0%
"Cc1ccc(NC(=O)NC(C)(C)c2ccccc2)cc1 [B2-4, N-(4-methylphenyl)-N′-(1-methyl-1-phenylethyl)urea]",% activity found,[1]; [24],0%
same,% activity found,[1]; [25],0%
same,% activity found,[1]; [26],0%
same,% activity found,[1]; [27],0%
same,% activity found,[2]; [27],40%
same,% activity found,[3]; [25],0%
same,% activity found,[3]; [26],0%
same,% activity found,[3]; [27],0%
same,% activity found,[4]; [24],0%
same,% activity found,[4]; [25],0%
same,% activity found,[4]; [26],0%
same,% activity found,[4]; [27],0%
same,% activity found,[12]; [24],0%
same,% activity found,[12]; [25],0%
same,% activity found,[12]; [26],0%
same,% activity found,[12]; [27],0%
same,% activity found,[5]; [27],10%
same,% activity found,[6]; [24],0%
same,% activity found,[6]; [25],10%
same,% activity found,[13]; [26],0%
same,% activity found,[13]; [27],0%
same,% activity found,[7]; [24],0%
same,% activity found,[7]; [25],0%
same,% activity found,[7]; [26],0%
same,% activity found,[7]; [27],20%
same,% activity found,[16]; component B 400 g of ai/ha,0%
same,% activity found,[16]; component B 1200 g of ai/ha,0%
same,% activity found,[14]; [24],0%
same,% activity found,[14]; [25],0%
same,% activity found,[14]; [26],0%
same,% activity found,[14]; [27],0%
same,% activity found,[8]; [24],0%
same,% activity found,[8]; [26],0%
same,% activity found,[8]; [27],0%
same,% activity found,[15]; [26],0%
same,% activity found,[15]; [27],0%
same,% activity found,[10]; component B 400 g of ai/ha,0%
same,% activity found,[10]; component B 1200 g of ai/ha,0%
same,% activity found,[11]; [24],0%
same,% activity found,[11]; [25],0%
same,% activity found,[11]; [26],0%
same,% activity found,[11]; [27],0%
